“And” between values parts separate entries of the source, which are not always exact repeats. Equal entries are not always repeated. Toxic doses and inconclusive results are not listed. Rule for the calls: active = survival T/C of 150% or more; inactive = T/C below 125% in these data.
System: P388 leukemia ip, CD2F1 mice, survival T/C
Test: NCI In Vivo Anticancer Drug Screen. Data for tumor model P388 Leukemia (intraperitoneal) in CD2F1 (CDF1) mice
Settings: endpoint: median survival time, higher = longer survival
Summary of the method: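 Mice carrying the transplanted tumor received test compound or vehicle. Survival was recorded in each group, and the value is the treated-group measurement divided by that of the vehicle-treated control group.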

[1] = dose: 60.0 mg/kg/injection, schedule: Q01DX005 (ip), vehicle: saline with Tween-80
[2] = dose: 120.0 mg/kg/injection, schedule: Q01DX005 (ip), vehicle: saline with Tween-80
[3] = dose: 240.0 mg/kg/injection, schedule: Q01DX005 (ip), vehicle: saline with Tween-80
[4] = dose: 50.0 mg/kg/injection, schedule: Q01DX009 (ip), vehicle: saline with Tween-80
[5] = dose: 200.0 mg/kg/injection, schedule: Q01DX009 (ip), vehicle: saline with Tween-80
[6] = dose: 60.0 mg/kg/injection, schedule: Q01DX005 (ip), vehicle: Klucel (hydroxypropylcellulose) (HPC)
[7] = dose: 120.0 mg/kg/injection, schedule: Q01DX005 (ip), vehicle: Klucel (hydroxypropylcellulose) (HPC)
[8] = dose: 50.0 mg/kg/injection, schedule: Q01DX005 (ip), vehicle: Klucel (hydroxypropylcellulose) (HPC)
[9] = dose: 100.0 mg/kg/injection, schedule: Q01DX009 (ip), vehicle: saline
[10] = dose: 100.0 mg/kg/injection, schedule: Q04DX003 (ip), vehicle: saline with Tween-80
[11] = dose: 200.0 mg/kg/injection, schedule: Q04DX003 (ip), vehicle: saline with Tween-80
[12] = dose: 400.0 mg/kg/injection, schedule: Q04DX003 (ip), vehicle: saline with Tween-80
[13] = dose: 100.0 mg/kg/injection, schedule: Q04DX002 (ip), vehicle: saline with Tween-80
[14] = dose: 200.0 mg/kg/injection, schedule: Q04DX002 (ip), vehicle: saline with Tween-80
[15] = dose: 50.0 mg/kg/injection, schedule: Q01DX009 (ip), vehicle: saline
[16] = dose: 200.0 mg/kg/injection, schedule: Q01DX009 (ip), vehicle: saline
[17] = dose: 12.5 mg/kg/injection, schedule: Q01DX009 (ip), vehicle: saline with Tween-80
[18] = dose: 25.0 mg/kg/injection, schedule: Q01DX009 (ip), vehicle: saline with Tween-80
[19] = dose: 100.0 mg/kg/injection, schedule: Q01DX009 (ip), vehicle: saline with Tween-80

Measured: T/C

CCOC(=O)c1cn2ccccc2c1C(=O)OCC
inactive: [1] 108 % of control | [2] 99 % of control | [3] 92 % of control

CCCCCCCCC#CCCCCCCCCCCCC(=O)O
inactive: [4] 88 % of control | [5] 90 % of control

CC1=NN(C(=O)c2ccccn2)C(=O)C1N=Nc1ccc(S(=O)(=O)Nc2ncccn2)cc1 (stereo unspecified)
inactive: [1] 102 % of control | [2] 105 % of control | [3] 94 % of control

Cc1c2c(=O)oc3ccc(Cl)cc3c2nn1-c1ccccc1
inactive: [6] 96 % of control | [7] 93 % of control

COC(=O)C1Cc2[nH]cnc2C(c2c(CO)cnc(C)c2O)N1 (stereo unspecified)
inactive: [8] 104 % of control | dose: 100.0 mg/kg/injection, schedule: Q01DX005 (ip), vehicle: Klucel (hydroxypropylcellulose) (HPC) 104 % of control

O=C(Nc1ccc(S(=O)(=O)O)cc1)c1ccc([N+](=O)[O-])cc1
inactive: [9] 100 % of control | dose: 400.0 mg/kg/injection, schedule: Q01DX009 (ip), vehicle: saline 109 % of control

N#Cc1nn(-c2ccccc2)sc1=N
inactive: dose: 3.13 mg/kg/injection, schedule: Q01DX009 (ip), vehicle: other 104 % of control | dose: 6.25 mg/kg/injection, schedule: Q01DX009 (ip), vehicle: other 110 % of control | dose: 12.5 mg/kg/injection, schedule: Q01DX009 (ip), vehicle: other 100 % of control | dose: 25.0 mg/kg/injection, schedule: Q01DX009 (ip), vehicle: other 94 % of control | dose: 50.0 mg/kg/injection, schedule: Q01DX009 (ip), vehicle: other 88 % of control | dose: 100.0 mg/kg/injection, schedule: Q01DX009 (ip), vehicle: other 88 % of control

CCCCC(Nc1nncs1)Nc1nncs1
inactive: [1] 90 % of control | [2] 102 % of control | [3] 96 % of control

COc1ccc(C2C(C(=O)OCc3ccccc3)=C(C)NC(C)=C2C(=O)OCc2ccccc2)cc1
inactive: dose: 0.78 mg/kg/injection, schedule: Q01DX009 (ip), vehicle: distilled water + Tween-80 98 % of control | dose: 1.56 mg/kg/injection, schedule: Q01DX009 (ip), vehicle: distilled water + Tween-80 93 % of control | dose: 3.13 mg/kg/injection, schedule: Q01DX009 (ip), vehicle: distilled water + Tween-80 88 % of control and 93 % of control | dose: 6.25 mg/kg/injection, schedule: Q01DX009 (ip), vehicle: distilled water + Tween-80 92 % of control | dose: 12.5 mg/kg/injection, schedule: Q01DX009 (ip), vehicle: distilled water + Tween-80 87 % of control and 92 % of control | dose: 25.0 mg/kg/injection, schedule: Q01DX009 (ip), vehicle: distilled water + Tween-80 95 % of control

CC(=O)OCC(=O)[C@@]1(O)CC[C@H]2[C@@H]3C[C@H](C)C4=CC(=O)CC[C@]4(C)[C@H]3[C@@H](O)C[C@@]21C
inactive: [10] 112 % of control | [11] 108 % of control | [12] 95 % of control

COc1ccc(C(C#N)C(=O)CCC(=O)C(C#N)c2ccc(OC)c(OC)c2)cc1OC (stereo unspecified)
inactive: [13] 106 % of control | [14] 98 % of control

OCC1OC2OC3C(CO)OC(OC4C(CO)OC(OC5C(CO)OC(OC6C(CO)OC(OC7C(CO)OC(OC1C(O)C2O)C(O)C7O)C(O)C6O)C(O)C5O)C(O)C4O)C(O)C3O (stereo unspecified)
inactive: [15] 94 % of control | [9] 89 % of control | [16] 96 % of control

O=c1cc(-c2ccc(OCc3ccccc3)c(-c3c(OCc4ccccc4)cc(OCc4ccccc4)c4c(=O)cc(-c5ccc(OCc6ccccc6)cc5)oc34)c2)oc2cc(OCc3ccccc3)cc(OCc3ccccc3)c12
inactive: dose: 25.0 mg/kg/injection, schedule: Q01DX001 (ip), vehicle: saline with Tween-80 93 % of control | dose: 50.0 mg/kg/injection, schedule: Q01DX001 (ip), vehicle: saline with Tween-80 89 % of control | dose: 100.0 mg/kg/injection, schedule: Q01DX001 (ip), vehicle: saline with Tween-80 87 % of control | dose: 200.0 mg/kg/injection, schedule: Q01DX001 (ip), vehicle: Klucel (hydroxypropylcellulose) (HPC) 89 % of control | dose: 400.0 mg/kg/injection, schedule: Q01DX001 (ip), vehicle: Klucel (hydroxypropylcellulose) (HPC) 88 % of control

Cc1ccccc1N1C(=O)[N+]2(CCCCC2)N=C1[O-]
inactive: [10] 99 % of control | [11] 100 % of control | [12] 92 % of control

CCOC(=O)c1c[nH]c2c(Cl)c(Cl)ccc2c1=O
inactive: dose: 50.0 mg/kg/injection, schedule: Q01DX009 (ip), vehicle: Klucel (hydroxypropylcellulose) (HPC) 102 % of control | dose: 100.0 mg/kg/injection, schedule: Q01DX009 (ip), vehicle: Klucel (hydroxypropylcellulose) (HPC) 95 % of control

CC1C2c3ccccc3C(c3ccccc32)C1CN1C(CCO)COC1c1ccccc1 (stereo unspecified)
inactive: [1] 92 % of control | [2] 87 % of control | [3] 90 % of control

COc1cc2c(c(OC)c1OC)-c1cc3c(cc1[C@@H](OC(C)=O)[C@@H]1COC(=O)[C@H]1C2)OCO3
inactive: dose: 1.25 mg/kg/injection, schedule: Q01DX009 (ip), vehicle: Klucel (hydroxypropylcellulose) (HPC) 100 % of control | dose: 2.5 mg/kg/injection, schedule: Q01DX009 (ip), vehicle: Klucel (hydroxypropylcellulose) (HPC) 111 % of control | dose: 5.0 mg/kg/injection, schedule: Q01DX009 (ip), vehicle: Klucel (hydroxypropylcellulose) (HPC) 95 % of control | dose: 10.0 mg/kg/injection, schedule: Q01DX009 (ip), vehicle: Klucel (hydroxypropylcellulose) (HPC) 97 % of control

N[N+]1(CCS(N)(=O)=O)CCOCC1
inactive: [15] 110 % of control | [9] 91 % of control | [16] 96 % of control

O=C(Nc1nnc(C(F)(F)F)s1)c1c(F)cccc1F
inactive: [17] 104 % of control | [18] 104 % of control | [4] 99 % of control

CC(=O)OC1C=CCC2C(=O)OC(=O)C12 (stereo unspecified)
inactive: dose: 30.0 mg/kg/injection, schedule: Q01DX005 (ip), vehicle: Klucel (hydroxypropylcellulose) (HPC) 103 % of control and 90 % of control | [6] 100 % of control | [7] 105 % of control and 90 % of control

Cc1ccccc1C1SCC(=O)N1c1ccccn1 (stereo unspecified)
inactive: [4] 104 % of control | [19] 101 % of control | [5] 95 % of control

CC1OC(O[C@H]2CC[C@]3(C=O)[C@H]4CC[C@]5(C)[C@@H](C6=COC(=O)C6)CC[C@]5(O)[C@@H]4CC[C@]3(O)C2)C(O)C(O)C1OC1OC(CO)C(O)C(O)C1O (stereo partly specified)
inactive: dose: 25.0 mg/kg/injection, schedule: Q01DX005 (ip), vehicle: Klucel (hydroxypropylcellulose) (HPC) 101 % of control | [8] 98 % of control

O=C(O)c1cccnn1
inactive: [4] 90 % of control | [19] 90 % of control

O=C(/C=C/c1c(-c2ccccc2)[nH]c2ccccc12)c1ccccc1[N+](=O)[O-]
inactive: [1] 95 % of control | [2] 96 % of control | [3] 92 % of control

O=C1CCCC1(c1ccccc1)c1ccccc1
inactive: [19] 90 % of control | [5] 95 % of control | dose: 400.0 mg/kg/injection, schedule: Q01DX009 (ip), vehicle: saline with Tween-80 95 % of control

Cc1nn(-c2ccccc2)c2c1S(=O)(=O)c1ccccc1-2
inactive: dose: 50.0 mg/kg/injection, schedule: Q01DX005 (ip), vehicle: saline with Tween-80 91 % of control | dose: 100.0 mg/kg/injection, schedule: Q01DX005 (ip), vehicle: saline with Tween-80 89 % of control | dose: 200.0 mg/kg/injection, schedule: Q01DX005 (ip), vehicle: saline with Tween-80 88 % of control

CCCCCCCCCCC(O)Cn1ccnc1 (stereo unspecified)
inactive: [17] 96 % of control | [18] 100 % of control | [4] 95 % of control

O=C1CS(=O)(=O)C(c2ccc(F)cc2)N1N1C(=O)CS(=O)(=O)C1c1ccc(F)cc1 (stereo unspecified)
inactive: [1] 91 % of control | [2] 93 % of control | [3] 93 % of control

O=C(Nc1cccc2ccccc12)OCCN=Cc1ccccc1O.O=C(Nc1cccc2ccccc12)OCCN=Cc1ccccc1O.[Cu]
inactive: [13] 94 % of control | [14] 94 % of control | dose: 400.0 mg/kg/injection, schedule: Q04DX002 (ip), vehicle: saline with Tween-80 107 % of control and 94 % of control

c1cc[c]([Ge]([c]2ccccc2)[c]2ccccc2)cc1
inactive: [1] 91 % of control | [2] 100 % of control | [3] 97 % of control

CCCN(CCC)CC(O)c1cc2cc(C(F)(F)F)cc(C(F)(F)F)c2c2cc(Cl)c(Cl)cc12 (stereo unspecified)
inactive: dose: 6.25 mg/kg/injection, schedule: Q01DX009 (ip), vehicle: saline with Tween-80 102 % of control | [17] 101 % of control | [18] 94 % of control | [19] 91 % of control | [5] 91 % of control

From PubChem BioAssay AID330 (DTP/NCI, 2004)
